For data set [1], the system named is 6 Hz (32 mA) seizures, mice. The experiment in a line: 6 Hz (32 mA) psychomotor seizure test.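 Note: compounds given as one i.p. dose suspended in 1% aqueous Tween 80, with the 6 Hz (32 mA) model considered to reflect focal epilepsy in humans.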 The class given is in vivo. The conditions noted are these: Mus musculus, ip, 100 mg/kg i.p., 0.5 h.
Text: (§1) Both the aforementioned parameters (ED50 and TD50) enabled the calculation of protective indexes (PIs), which reflect the comparative the benefit–risk ratio of these experimental therapeutic agents.
(§2) Four mice per group were randomly assigned to each experimental group in the initial screening experiments (each mouse was used just once). Four groups, each with eight animals, received injections of different doses of the investigated substances in order to determine the ED50 or TD50 values. The PIs for the compounds investigated and reference ASMs were calculated by dividing the TD50 value, as determined in the chimney test by the respective ED50 value, as determined in the MES, scPTZ, or 6 Hz (32 mA or 44 mA) tests (PI = TD50/ED50). The PIs are a measure of the potential therapeutic window of the tested agent.
(§3) All substances were suspended in Tween 80 (1% aqueous solution) and administered i.p. as a single injection at a volume of 10 mL/kg. On each day of experimentation, fresh solutions were prepared.
In data set [2] the test system is maximal electroshock (MES) seizures, mice. As to the kind of experiment: maximal electroshock (MES) seizure test. The class given is in vivo. The following applies: Mus musculus, ip; 100 mg/kg i.p., 0.5 h, mice; read-out: MES: number of mice protected/number of mice tested (converted).
Text: as §1, §2, §3
In a further data set the target is T1, TRPV1 (VR1) (h) (Homo sapiens, UniProt Q8NER1).
T1 construct: host or cells: CHO cells
The experiment in a line: TRPV1 (VR1) (h) (antagonist effect). The class given is cell-based. The following applies: 100 µM, human recombinant CHO cells; read-out: % Inhibition of control agonist response. The procedure: Further in vitro functional studies confirmed TRPV1 antagonist activity for (R)-31–(R)-33.
Using previously described testing methodologies, binding/functional tests were conducted on a commercial basis at Eurofins Laboratories (Poitiers, France) and Eurofins Panlabs Discovery Services Taiwan, Ltd. (New Taipei City, Taiwan); see Table S9 for more information.
Table S9. Radioligand binding and functional assays. […]
TRPV1 (VR1) (h) (antagonist effect) […]
Assays were performed commercially in Eurofins Laboratories (Poitiers, France) or Eurofins Panlabs Discovery Services
Taiwan, Ltd. (New Taipei City, Taiwan).

The mark [3] stands for this setting: four mice, read-out: protection in the 6 Hz (32 mA) test.
Setting [4] is: mice, read-out: 6 Hz (32 mA): number of mice protected/number of mice tested (converted).

From paper PMC11378297, “Discovery and Profiling of New Multimodal Phenylglycinamide Derivatives as Potent Antiseizure and Antinociceptive Drug Candidates” (ACS Chemical Neuroscience, 2024) come the findings set out here.

Like-named read-outs stand apart in the source and are kept apart here.

T1 sequence (Q8NER1 whole entry): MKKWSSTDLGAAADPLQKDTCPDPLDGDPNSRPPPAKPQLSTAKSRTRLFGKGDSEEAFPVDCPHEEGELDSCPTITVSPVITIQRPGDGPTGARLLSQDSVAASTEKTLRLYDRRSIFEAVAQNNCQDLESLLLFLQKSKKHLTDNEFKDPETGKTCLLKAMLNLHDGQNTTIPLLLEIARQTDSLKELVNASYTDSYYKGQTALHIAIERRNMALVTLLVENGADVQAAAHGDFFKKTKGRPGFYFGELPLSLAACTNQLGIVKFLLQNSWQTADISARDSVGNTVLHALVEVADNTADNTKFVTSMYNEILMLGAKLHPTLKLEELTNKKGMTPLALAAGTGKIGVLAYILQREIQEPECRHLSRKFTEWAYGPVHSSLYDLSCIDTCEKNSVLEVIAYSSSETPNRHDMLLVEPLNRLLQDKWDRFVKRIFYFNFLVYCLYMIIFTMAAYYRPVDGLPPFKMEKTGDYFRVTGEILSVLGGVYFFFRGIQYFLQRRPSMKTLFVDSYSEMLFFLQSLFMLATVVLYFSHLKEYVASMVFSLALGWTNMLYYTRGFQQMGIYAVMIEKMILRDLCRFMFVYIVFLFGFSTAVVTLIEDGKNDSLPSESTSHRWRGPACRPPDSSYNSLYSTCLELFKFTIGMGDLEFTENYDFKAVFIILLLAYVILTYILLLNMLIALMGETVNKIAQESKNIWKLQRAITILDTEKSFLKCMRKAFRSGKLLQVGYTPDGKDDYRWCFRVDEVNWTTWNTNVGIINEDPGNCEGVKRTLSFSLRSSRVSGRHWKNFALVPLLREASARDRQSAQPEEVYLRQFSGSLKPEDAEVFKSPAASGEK

For `CC(=O)N[C@H](C(=O)N1CCN(c2cccc(C(F)(F)F)c2)CC1)c1ccccc1` [(S)-31, (S)-N-(2-Oxo-1-phenyl-2-(4-(3-(trifluoromethyl)phenyl)piperazin-1-yl)ethyl)acetamide], the melting point (in general, the temperature, or range, at which the solid turns liquid) was 109.8 to 110.6 °C. Further, the responders at 100 mg/kg in data set [1] (setting [3]) worked out at 50%. In addition, the responders at 100 mg/kg in data set [1] (setting [4]) is 50%. The responders at 100 mg/kg in data set [2] is 25%.

`CC(=O)N[C@H](C(=O)N1CCN(c2cccc(OC(F)(F)F)c2)CC1)c1ccccc1` [(S)-32, (S)-N-(2-Oxo-1-phenyl-2-(4-(3-(trifluoromethoxy)phenyl)piperazin-1-yl)ethyl)acetamide]: the responders at 100 mg/kg in data set [1] (setting [3]) was 75%; in data set [1] (setting [4]), 75%; in data set [2] it was 25%.

Regarding `CC(=O)N[C@H](C(=O)N1CCN(c2cccc(SC(F)(F)F)c2)CC1)c1ccccc1` [(S)-33, (S)-N-(2-Oxo-1-phenyl-2-(4-(3-((trifluoromethyl)thio)phenyl)piperazin-1-yl)ethyl)acetamide], the results for the responders at 100 mg/kg in data set [1] (setting [3]), in data set [1] (setting [4]) and in data set [2] were 75%, 75% and 25%, respectively.

On to `O=C(NC(C(=O)N1CCN(c2cccc(C(F)(F)F)c2)CC1)c1ccccc1)c1ccccc1` (centres unmarked) [Compound 3, N-(2-Oxo-1-phenyl-2-(4-(3-(trifluoromethyl)phenyl)piperazin-1-yl)ethyl)benzamide], for which the melting point was in the range of 140.9 to 141.2 °C. Besides, the inhibition (in general, the relative decrease from the control value, in per cent) at 100 µM at TRPV1 (VR1) (h) turned out to be 11.4%. Further, the responders at 100 mg/kg in data set [1] (setting [3]) was determined as 50%. The responders at 100 mg/kg in data set [1] (setting [4]) is 50%. Besides, in data set [2], the responders at 100 mg/kg was 0%.

`O=C(NC(C(=O)N1CCN(c2cccc(C(F)(F)F)c2)CC1)c1ccccc1)c1ccccc1Cl` (centres unmarked) [Compound 4, 2-Chloro-N-(2-oxo-1-phenyl-2-(4-(3-(trifluoromethyl)phenyl)piperazin-1-yl)ethyl) Benzamide] came in with a melting point of 134.8 to 135.9 °C. In addition, the inhibition at 100 µM at TRPV1 (VR1) (h) amounted to 14.4%. Also, the responders at 100 mg/kg in data set [1] (setting [4]) was 0%. Besides, in data set [2], the responders at 100 mg/kg is 0%.

On to `O=C(NC(C(=O)N1CCN(c2cccc(C(F)(F)F)c2)CC1)c1ccccc1)c1cccc(Cl)c1` (centres unmarked) [Compound 5, 3-Chloro-N-(2-oxo-1-phenyl-2-(4-(3-(trifluoromethyl)phenyl)piperazin-1-yl)ethyl) Benzamide], for which the melting point lay within 151.7 to 152.4 °C. Besides, at TRPV1 (VR1) (h), the inhibition at 100 µM was 3.8%. In addition, in data set [1] (setting [3]), the responders at 100 mg/kg came out at 50%. The responders at 100 mg/kg in data set [1] (setting [4]) was 50%. In data set [2], the responders at 100 mg/kg was 0%.

In the case of `O=C(NC(C(=O)N1CCN(c2cccc(C(F)(F)F)c2)CC1)c1ccccc1)c1ccc(Cl)cc1` (centres unmarked) [Compound 6, 4-Chloro-N-(2-oxo-1-phenyl-2-(4-(3-(trifluoromethyl)phenyl)piperazin-1-yl)ethyl) Benzamide], the melting point is 165.2 to 166.7 °C. The inhibition at 100 µM on TRPV1 (VR1) (h) stood at 6.8%. In addition, the responders at 100 mg/kg in data set [1] (setting [3]) was 25%. For the same compound, the responders at 100 mg/kg in data set [1] (setting [4]) is 25%. Moreover, the responders at 100 mg/kg in data set [2] was 0%.

As for `O=C(NC(C(=O)N1CCN(c2cccc(C(F)(F)F)c2)CC1)c1ccccc1)c1ccccc1C(F)(F)F` (centres unmarked) [Compound 7, N-(2-Oxo-1-phenyl-2-(4-(3-(trifluoromethyl)phenyl)piperazin-1-yl)ethyl)-2 (trifluoromethyl)benzamide], the melting point lay within 165.2 to 166.7 °C. In addition, on TRPV1 (VR1) (h), the inhibition at 100 µM is -2.6%. The responders at 100 mg/kg in data set [1] (setting [4]) was 0%. Further, the responders at 100 mg/kg in data set [2] was 0%.

Consider `O=C(NC(C(=O)N1CCN(c2cccc(C(F)(F)F)c2)CC1)c1ccccc1)c1cccc(C(F)(F)F)c1` (centres unmarked) [Compound 8, N-(2-Oxo-1-phenyl-2-(4-(3-(trifluoromethyl)phenyl)piperazin-1-yl)ethyl)-3-(trifluoromethyl)benzamide], for which the melting point lay in the range of 143.2 to 144.1 °C. Further, on TRPV1 (VR1) (h), the inhibition at 100 µM was -6.1%. For the same compound, the responders at 100 mg/kg in data set [1] (setting [4]) is 0%. The responders at 100 mg/kg in data set [2] was 0%.

Regarding `O=C(NC(C(=O)N1CCN(c2cccc(C(F)(F)F)c2)CC1)c1ccccc1)c1ccc(C(F)(F)F)cc1` (centres unmarked) [Compound 9, N-(2-Oxo-1-phenyl-2-(4-(3-(trifluoromethyl)phenyl)piperazin-1-yl)ethyl)-4-(trifluoromethyl) Benzamide], the melting point was 103.4 to 104.2 °C. The inhibition at 100 µM at TRPV1 (VR1) (h) worked out at 6.2%. Besides, the responders at 100 mg/kg in data set [1] (setting [4]) is 0%. For the same compound, the responders at 100 mg/kg in data set [2] was 0%.

On to `O=C(NC(C(=O)N1CCN(c2cccc(C(F)(F)F)c2)CC1)c1ccccc1)c1ncccc1C(F)(F)F` (centres unmarked) [Compound 10, N-(2-Oxo-1-phenyl-2-(4-(3-(trifluoromethyl)phenyl)piperazin-1-yl)ethyl)-3-(trifluoromethyl)picolinamide], for which the inhibition at 100 µM at TRPV1 (VR1) (h) was -3.5%. The responders at 100 mg/kg in data set [1] (setting [4]) was 50%; in data set [2], 0%.

For the compound `O=C(NC(C(=O)N1CCN(c2cccc(C(F)(F)F)c2)CC1)c1ccccc1)c1cc(C(F)(F)F)ccn1` (centres unmarked) [Compound 11, N-(2-Oxo-1-phenyl-2-(4-(3-(trifluoromethyl)phenyl)piperazin-1-yl)ethyl)-4-(trifluoromethyl)picolinamide], the melting point lay in the range of 101.2 to 102.4 °C. Further, the inhibition at 100 µM on TRPV1 (VR1) (h) is -4.2%. Also, the responders at 100 mg/kg in data set [1] (setting [4]) was 50%. Moreover, in data set [2], the responders at 100 mg/kg is 0%.

Compound `O=C(NC(C(=O)N1CCN(c2cccc(C(F)(F)F)c2)CC1)c1ccccc1)c1ccc(C(F)(F)F)cn1` (centres unmarked) [Compound 12, N-(2-Oxo-1-phenyl-2-(4-(3-(trifluoromethyl)phenyl)piperazin-1-yl)ethyl)-5-(trifluoromethyl)picolinamide] showed a melting point of 146.5 to 147.2 °C. Also, the inhibition at 100 µM at TRPV1 (VR1) (h) is -1.2%. In addition, the responders at 100 mg/kg in data set [1] (setting [4]) was 50%. In data set [2], the responders at 100 mg/kg is 0%.

As for `CC(=O)NC(C(=O)NC1CCN(c2ccccc2)C1)c1ccccc1` (centres unmarked) [Compound 21, 2-Acetamido-2-phenyl-N-(1-phenylpyrrolidin-3-yl)acetamide], the melting point is 189.7 to 190.5 °C. Further, at TRPV1 (VR1) (h), the inhibition at 100 µM was 4.2%. Also, in data set [1] (setting [4]), the responders at 100 mg/kg was 0%. Moreover, the responders at 100 mg/kg in data set [2] is 0%.

`CC(=O)NC(C(=O)NC1CCN(c2cccc(C(F)(F)F)c2)C1)c1ccccc1` (centres unmarked) [Compound 22, 2-Acetamido-2-phenyl-N-(1-(3-(trifluoromethyl)phenyl)pyrrolidin-3-yl)acetamide] came in with a melting point of 203.7 to 204.4 °C. On TRPV1 (VR1) (h), the inhibition at 100 µM is -8.4%. The responders at 100 mg/kg in data set [1] (setting [3]) stood at 50%. In addition, the responders at 100 mg/kg in data set [1] (setting [4]) was 50%. In data set [2], the responders at 100 mg/kg is 0%.

For the compound `CC(=O)NC(C(=O)NC1CCN(c2cccc(OC(F)(F)F)c2)C1)c1ccccc1` (centres unmarked) [Compound 23, 2-Acetamido-2-phenyl-N-(1-(3-(trifluoromethoxy)phenyl)pyrrolidin-3-yl)acetamide], the melting point was 173.1 to 174.2 °C. Also, on TRPV1 (VR1) (h), the inhibition at 100 µM was -2.7%. Further, the responders at 100 mg/kg in data set [1] (setting [3]) was 50%. In data set [1] (setting [4]), the responders at 100 mg/kg was 50%. For the same compound, the responders at 100 mg/kg in data set [2] is 0%.

Regarding `CC(=O)NC(C(=O)NC1CCN(c2cccc(SC(F)(F)F)c2)C1)c1ccccc1` (centres unmarked) [Compound 24, 2-Acetamido-2-phenyl-N-(1-(3-((trifluoromethyl)thio)phenyl)pyrrolidin-3-yl)acetamide], the melting point lay within 168.8 to 169.7 °C. Also, the inhibition at 100 µM at TRPV1 (VR1) (h) was 1.3%. In data set [1] (setting [3]), the responders at 100 mg/kg was 25%. Also, the responders at 100 mg/kg in data set [1] (setting [4]) is 25%. Moreover, the responders at 100 mg/kg in data set [2] was 0%.
